Measured values: patent publication US11739074B2, “Ras inhibitors” (Revolution Medicines, Inc., priority 2019, dated 2023)
Read-outs that look alike come from different tables or passages of the source.

Columns and labels:
Type in all cases: cell-based
[1] = test system: NCI-H358 (K-Ras G12C); assay: CellTiter-Glo cell viability assay, H358; details: Homo sapiens, NCI-H358, 120 h
Procedure, shortened: (§1)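 Viability is scored by CellTiter-Glo luminescence on day 5 of compound treatment, relative to vehicle (DMSO) wells set as 100%, with a four-parameter logistic fit.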

[2] = test system: AsPC-1 (K-Ras G12D); assay: CellTiter-Glo cell viability assay, AsPC-1; details: Homo sapiens, ASPC1, 120 h
Procedure, shortened: as §1

[3] = test system: AsPC-1 (K-Ras G12D); assay: Potency assay: pERK in AsPC-1 cells; details: Homo sapiens
[4] = NCI-H358, K-Ras G12C, 5-day treatment, read-out: H358 Cell Viability IC50
[5] = AsPC-1, K-Ras G12D, 5-day treatment, read-out: AsPC-1 Cell Viability IC50
[6] = ASPC1, AsPC-1 cells, K-Ras G12D, read-out: pERK EC50 (AsPC-1 KRAS G12D)
[7] = ASPC1, read-out: pERK EC50 (AsPC-1 KRAS G12D)
[8] = read-out: H358 Cell Viability IC50, NCI-H358, K-Ras G12C, 5-day treatment
[9] = read-out: AsPC-1 Cell Viability IC50, AsPC-1, K-Ras G12D, 5-day treatment

Compound | IC50 [1, 4] [nM] | IC50 [2, 5] [nM] | EC50 [3, 6] [nM] | IC50 ([1]; read-out: H358 Cell Viability IC50) [nM] | IC50 ([2]; read-out: AsPC-1 Cell Viability IC50) [nM] | EC50 [3, 7] [nM] | IC50 [1, 8] [nM] | IC50 [2, 9] [nM]
CCn1c(-c2cccnc2[C@H](C)OC)c2c3cc(ccc31)-c1csc(n1)C[C@H](NC(=O)[C@H](C(C)C)N(C)C(=O)N1CCN(C(=O)[C@@H]3CN3)[C@@H](C)C1)C(=O)N1CCC[C@H](N1)C(=O)OCC(C)(C)C2 [Compound 298] | 10 to 100 | 100 to 1000 | < 5000 | – | – | – | – | –
CCn1c(-c2cccnc2[C@H](C)OC)c2c3cc(ccc31)-c1csc(n1)C[C@H](NC(=O)[C@H](C(C)C)N(C)C(=O)N1CCN(C(=O)[C@H]3CN3)[C@H](C)C1)C(=O)N1CCC[C@H](N1)C(=O)OCC(C)(C)C2 [Compound 299] | < 10 | 100 to 1000 | < 5000 | – | – | – | – | –
CCn1c(-c2cccnc2[C@H](C)OC)c2c3cc(ccc31)-c1csc(n1)C[C@H](NC(=O)[C@H](C(C)C)N(C)C(=O)N1CCN(C(=O)[C@@H]3CN3)[C@H](C)C1)C(=O)N1CCC[C@H](N1)C(=O)OCC(C)(C)C2 [Compound 300] | 10 to 100 | 100 to 1000 | < 5000 | – | – | – | – | –
CCn1c(-c2cccnc2[C@H](C)OC)c2c3cc(ccc31)-c1csc(n1)C[C@H](NC(=O)[C@H](C(C)C)N(C)C(=O)N1CCN(C(=O)[C@H]3CN3)C[C@H]1C)C(=O)N1CCC[C@H](N1)C(=O)OCC(C)(C)C2 [Compound 301] | < 10 | 100 to 1000 | < 5000 | – | – | – | – | –
CCn1c(-c2cccnc2[C@H](C)OC)c2c3cc(ccc31)-c1csc(n1)C[C@H](NC(=O)[C@H](C(C)C)N(C)C(=O)N1CCN(C(=O)[C@@H]3CN3)C[C@H]1C)C(=O)N1CCC[C@H](N1)C(=O)OCC(C)(C)C2 [Compound 302] | 10 to 100 | 100 to 1000 | < 5000 | – | – | – | – | –
CCn1c(-c2cccnc2[C@H](C)OC)c2c3cc(ccc31)-c1cc(O)cc(c1)C[C@H](NC(=O)[C@H](C1CCCC1)N(C)C(=O)CN(C)C(=O)[C@H]1N[C@H]1C1(C#N)CC1)C(=O)N1CCC[C@H](N1)C(=O)OCC(C)(C)C2 [Compound 316] | 10 to 100 | 1000 to 10000 | < 5000 | – | – | – | – | –
CCn1c(-c2cccnc2[C@H](C)OC)c2c3cc(ccc31)-c1cc(O)cc(c1)C[C@H](NC(=O)[C@H](C1CCCC1)N(C)C(=O)CN(C)C(=O)[C@H]1[C@@H](C3CC3)N1CCCOC)C(=O)N1CCC[C@H](N1)C(=O)OCC(C)(C)C2 (stereo partly drawn) [Compound 317] | 10 to 100 | 10 to 100 | < 5000 | – | – | – | – | –
CCn1c(-c2cccnc2[C@H](C)OC)c2c3cc(ccc31)-c1cc(cc(C(F)F)c1)C[C@H](NC(=O)[C@H](C1CCCC1)N(C)C(=O)CN(C)C(=O)[C@@H]1N[C@@H]1C1CC1)C(=O)N1CCC[C@H](N1)C(=O)OCC(C)(C)C2 [Compound 320] | 100 to 1000 | 100 to 1000 | < 5000 | – | – | – | – | –
CCn1c(-c2cc(N3CCN(C)CC3)cnc2[C@H](C)OC)c2c3cc(ccc31)-c1cc(O)cc(c1)C[C@H](NC(=O)[C@H](C1CCCC1)N(C)C(=O)CN(C)C(=O)[C@@H]1N[C@@H]1C1CC1)C(=O)N1CCC[C@H](N1)C(=O)OCC(C)(C)C2 [Compound 325] | < 10 | < 10 | < 5000 | – | – | – | – | –
CCn1c(-c2cccnc2[C@H](C)OC)c2c3cc(ccc31)-c1csc(n1)C[C@H](NC(=O)[C@H](C(C)C)N(C)C(=O)N1CCC(CN(C)C(=O)[C@H]3CN3)CC1)C(=O)N1CCC[C@H](N1)C(=O)OCC(C)(C)C2 [Compound 326] | 10 to 100 | 100 to 1000 | < 5000 | – | – | – | – | –
CCn1c(-c2cccnc2[C@H](C)OC)c2c3cc(ccc31)-c1cc(O)cc(c1)C[C@H](NC(=O)[C@H](C1CCCC1)N(C)C(=O)[C@H](C)N(C)C(=O)[C@@H]1N[C@@H]1C1CC1)C(=O)N1CCC[C@H](N1)C(=O)OCC(C)(C)C2 [Compound 328] | < 10 | 100 to 1000 | < 5000 | – | – | – | – | –
CCn1c(-c2cnccc2COC)c2c3cc(ccc31)-c1cc(O)cc(c1)C[C@H](NC(=O)[C@H](C(C)C)N(C)C(=O)[C@H]1CCN(C(=O)[C@H]3CN3)C1)C(=O)N1CCC[C@H](N1)C(=O)OCC(C)(C)C2 [Example 1, (3S)-1-((R)-aziridine-2-carbonyl)-N-((2S)-1-(((6^3S,4S)-1^1-ethyl-2^5-hydroxy-1^2-(4-(methoxymethyl)pyridin-3-yl)-10,10-dimethyl-5,7-dioxo-6^1,6^2,6^3,6^4,6^5,6^6-hexahydro-1^1H-8-oxa-1(5,3)-indola-6(1,3)-pyridazina-2(1,3)-benzenacycloundecaphane-4-yl)amino)-3-methyl-1-oxobutan-2-yl)-N-methylpyrrolidine-3-carboxamide] | < 10 | 1000 to 10000 | < 5000 | – | – | – | – | –
CCn1c(-c2cnccc2COC)c2c3cc(ccc31)-c1cc(O)cc(c1)C[C@H](NC(=O)[C@H](C(C)C)N(C)C(=O)CN(C)C(=O)[C@H]1[C@@H](C(=O)OC)N1[S@+]([O-])C(C)(C)C)C(=O)N1CCC[C@H](N1)C(=O)OCC(C)(C)C2 (stereo partly drawn) [Example 48, methyl (2S,3R)-1-((R)-tert-butylsulfinyl)-3-((2-(((2S)-1-(((6^3S,4S)-1^1-ethyl-2^5-hydroxy-1^2-(4-(methoxymethyl)pyridin-3-yl)-10,10-dimethyl-5,7-dioxo-6^1,6^2,6^3,6^4,6^5,6^6-hexahydro-1^1H-8-oxa-1(5,3)-indola-6(1,3)-pyridazina-2(1,3)-benzenacycloundecaphane-4-yl)amino)-3-methyl-1-oxobutan-2-yl)(methyl)amino)-2-oxoethyl)(methyl)carbamoyl)aziridine-2-carboxylate] | – | – | – | 100 to 1000 | 1000 to 10000 | < 5000 | – | –
CCn1c(-c2cnccc2COC)c2c3cc(ccc31)-c1cc(O)cc(c1)C[C@H](NC(=O)[C@H](C(C)C)N(C)C(=O)CN(C)C(=O)[C@@H]1N[C@@H]1C(=O)OC)C(=O)N1CCC[C@H](N1)C(=O)OCC(C)(C)C2 [Example 49, methyl (2S,3R)-3-((2-(((2S)-1-(((6^3S,4S)-1^1-ethyl-2^5-hydroxy-1^2-(4-(methoxymethyl)pyridin-3-yl)-10,10-dimethyl-5,7-dioxo-6^1,6^2,6^3,6^4,6^5,6^6-hexahydro-1^1H-8-oxa-1(5,3)-indola-6(1,3)-pyridazina-2(1,3)-benzenacycloundecaphane-4-yl)amino)-3-methyl-1-oxobutan-2-yl)(methyl)amino)-2-oxoethyl)(methyl)carbamoyl)aziridine-2-carboxylate] | – | – | – | – | – | < 5000 | 1000 to 10000 | 1000 to 10000
CCn1c(-c2cccnc2[C@H](C)OC)c2c3cc(ccc31)-c1cc(O)cc(c1)C[C@H](NC(=O)[C@H](C1CCCC1)N(C)C(=O)CN(C)C(=O)[C@H]1CN1)C(=O)N1CCC[C@H](N1)C(=O)OCC(C)(C)C2 [Example 95, (2R)—N-(2-(((1S)-1-cyclopentyl-2-(((6^3S,4S)-1^1-ethyl-2^5-hydroxy-1^2-(2-((S)-1-methoxyethyl)pyridin-3-yl)-10,10-dimethyl-5,7-dioxo-6^1,6^2,6^3,6^4,6^5,6^6-hexahydro-1^1H-8-oxa-1(5,3)-indola-6(1,3)-pyridazina-2(1,3)-benzenacycloundecaphane-4-yl)amino)-2-oxoethyl)(methyl)amino)-2-oxoethyl)-N-methylaziridine-2-carboxamide] | – | – | – | – | – | < 5000 | < 10 | 10 to 100
CCn1c(-c2cccnc2[C@H](C)OC)c2c3cc(ccc31)-c1cc(O)cc(c1)C[C@H](NC(=O)[C@H](C(C)C)N(C)C(=O)CN(C)C(=O)[C@@H]1N[C@@H]1C1CC1)C(=O)N1CCC[C@H](N1)C(=O)OCC(C)(C)C2 [Example 133, (2R,3R)-3-cyclopropyl-N-(2-(((2S)-1-(((6^3S,4S)-1^1-ethyl-2^5-hydroxy-1^2-(2-((S)-1-methoxyethyl)pyridin-3-yl)-10,10-dimethyl-5,7-dioxo-6^1,6^2,6^3,6^4,6^5,6^6-hexahydro-1^1H-8-oxa-1(5,3)-indola-6(1,3)-pyridazina-2(1,3)-benzenacycloundecaphane-4-yl)amino)-3-methyl-1-oxobutan-2-yl)(methyl)amino)-2-oxoethyl)-N-methylaziridine-2-carboxamide] | – | – | – | – | – | < 5000 | 10 to 100 | 10 to 100
CCn1c(-c2cccnc2[C@H](C)OC)c2c3cc(ccc31)-c1cc(O)cc(c1)C[C@H](NC(=O)[C@H](C1CCCC1)N1CC[C@]3(CCN(C(=O)[C@H]4CN4)C3)C1=O)C(=O)N1CCC[C@H](N1)C(=O)OCC(C)(C)C2 [Example 175, (2S)-2-((S)-7-((R)-aziridine-2-carbonyl)-1-oxo-2,7-diazaspiro[4.4]nonan-2-yl)-2-cyclopentyl-N-((6^3S,4S)-1^1-ethyl-2^5-hydroxy-1^2-(2-((S)-1-methoxyethyl)pyridin-3-yl)-10,10-dimethyl-5,7-dioxo-6^1,6^2,6^3,6^4,6^5,6^6-hexahydro-1^1H-8-oxa-1(5,3)-indola-6(1,3)-pyridazina-2(1,3)-benzenacycloundecaphane-4-yl)acetamide] | < 10 | 10 to 100 | < 5000 | – | – | – | – | –
